We go through 9 molecules from PubChem BioAssay (NCI).

What all share (assay): NCI-60 cell line screen, 48 h
Test [1] has as its system CCRF-CEM leukemia.
In test [2] the test system is HCT-116 colon.
The subject of test [3] is HOP-62 NSCLC.
Test [4] concerns KM12 colon.
Test [5] concerns MDA-MB-231 breast.
Test [6] deals with MOLT-4 leukemia.
The test system of test [7] is RXF 393 renal.
In test [8] the test system is SN12C renal.
Test [9] has as its system UACC-257 melanoma.
The subject of test [10] is NCI-H522 lung.

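Exposure lasted 48 hours, with cells grown in 96-well plates and compounds tested at five concentrations. The concentration for 50% growth inhibition is given as GI50. TGI: total growth inhibition.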

Consider `Nc1nc(SCc2ccccc2CCl)c2[nH]cnc2n1`, for which the GI50 in [1] was 28.5 µM; in test [2], 16.2 µM; in test [3], 17 µM; in test [4], 14.8 µM; in [5], 14.2 µM; in test [6], 21.4 µM. In addition, the GI50 is 14 µM in test [7], 21.2 µM in [8] and 14.5 µM in [9]. In addition, the TGI in test [1] was more than 100 µM; in [2], 33.8 µM; in test [3], 33.2 µM; in test [4], 28.1 µM; in test [5], 38 µM; in test [6] it was more than 100 µM. Moreover, the TGI in test [7] is 28.7 µM; in test [8], 71.7 µM; in test [9], 32.9 µM.

Turning to `CC[C@H](C)[C@H](NC(=O)[C@H]1CCCCN1C)C(=O)N(C)[C@H](CCc1nc(C(=O)N[C@@H](Cc2ccccc2)C[C@H](C)C(=O)O)cs1)C(C)C`, the GI50 in test [1] was 0.0857 µM; in test [2] it was 0.133 µM; in [3], 0.208 µM; in [4], 0.115 µM; in [5] it was 0.596 µM; in test [6], 0.138 µM. Also, the GI50 in test [10] was 0.0351 µM; in [8], 0.445 µM; in test [9], more than 25 µM. The TGI in [1], in [2], in [3], in test [4], in test [5] and in test [6] was more than 25 µM each time. For the same molecule, the values for the TGI in test [10], in [8] and in test [9] were 0.579 µM, more than 25 µM and more than 25 µM, respectively.

As for `N=C(N)c1ccc2oc3ccc(C(=N)N)cc3c(=O)c2c1`, the TGI in test [1], in test [2], in test [4], in [5], in test [6] and in [10] was more than 100 µM each time. Besides, the TGI in test [7], in [8] and in test [9] was more than 100 µM each time.

Regarding `CCc1ccc2c(c1)C(=O)c1c-2n(CCCN)c(=O)c2cc(OC)c(OC)cc12`, the GI50 in test [1] was 1.1 µM; in test [3], 1.84 µM; in test [4], 1.41 µM; in [5], 1.63 µM; in [6], 1.75 µM; in [10], 1.59 µM. Further, the results for the GI50 in test [8] and in test [9] were 1.73 µM and 19.5 µM, respectively. Further, the TGI in test [1] came out at 2.48 µM; in [3] it was 3.29 µM; in test [4], 3.15 µM; in test [5], 3.14 µM; in test [6], 3.52 µM; in test [10], 3.38 µM. In addition, the figures for the TGI in test [8] and in [9] were 3.33 µM and 43.6 µM, respectively.

On to `CN1C2C=CC(=O)C1C1C(=O)N(c3ccccc3)C(=O)C12` (stereo unspecified), for which the GI50 in [1] is 7.51 µM; in test [2] it was 3.57 µM; in test [3], 12.4 µM; in test [4], 5.17 µM; in test [5], 15.3 µM; in test [6] it was 5.99 µM. Also, the GI50 in test [10] is 14.3 µM; in test [8], 5.09 µM; in test [9], 2.42 µM. For the same molecule, the TGI in [1] was more than 100 µM; in test [2], 16.2 µM; in [3] it was 28.6 µM; in [4], 18.4 µM; in test [5], 37.8 µM; in test [6], more than 100 µM. In addition, the TGI in test [10] amounted to 79.9 µM; in [8], 31.9 µM; in [9], 7.47 µM.

For the molecule `COc1cc(C(=O)c2cnc(-c3c[nH]c4cccc(C)c34)[nH]2)cc(OC)c1OC`, the GI50 was 0.00824 µM in test [1]; 0.00346 µM in test [2]; 0.00809 µM in [3]; 0.00482 µM in [4]; 0.0204 µM in [5]; 0.0378 µM in test [6]. Moreover, the GI50 was 0.00929 µM in [8] and 0.332 µM in test [9]. The TGI is more than 100 µM in [1]; 11.1 µM in test [2]; 55.9 µM in test [3]; more than 100 µM in test [4]; more than 100 µM in test [6]; 0.0224 µM in [10]. Besides, the TGI in [8] is more than 100 µM.

Turning to `CCCN1C(=O)/C(=C/c2ccc(SC(F)(F)F)cc2)SC1=Nc1ccc(OC)cc1`, the GI50 in [2] is 6.29 µM; in test [3], 16.5 µM; in test [4], 19.7 µM; in test [5], 5.93 µM; in [6], more than 50 µM; in test [7], 5.35 µM. The GI50 in [8] is 13.6 µM; in test [9] it was 2.74 µM. Moreover, the TGI in test [2] was 17.5 µM; in test [3], more than 50 µM; in [4], more than 50 µM; in test [5] it was 19.5 µM; in test [6], more than 50 µM; in [7] it was 16.9 µM. Moreover, the results for the TGI in test [8] and in test [9] were more than 50 µM and 22.4 µM, respectively.

In the case of `C=CCC(N[C@@H](CO)c1ccccc1)c1ccc2ccccc2n1` (stereo partly specified), the GI50 is 46.1 µM in test [1]; more than 100 µM in test [2]; more than 100 µM in test [3]; more than 100 µM in [4]; 45.8 µM in test [5]; 64.6 µM in [10]. Besides, the GI50 in test [7] was more than 100 µM; in test [8], 67.5 µM; in [9] it was 32.4 µM. In addition, the TGI in test [1], in [2], in test [3], in test [4], in test [5] and in test [10] was more than 100 µM throughout. The TGI in [7], in test [8] and in test [9] was more than 100 µM each time.

`O=C(/C=C/c1ccc(O)c(O)c1)N1CCN(c2ccc(Cl)cc2)CC1`: the GI50 in test [1] is 1.96 µM; in test [2], 5.18 µM; in test [3], 7.77 µM; in test [4], 7.65 µM; in test [5], 5.28 µM; in [6], 3.47 µM. The GI50 in test [10] was 1.83 µM; in [8], 4.11 µM; in [9], 7.72 µM. Besides, the TGI in test [1] is 45.1 µM; in test [2], 19.8 µM; in test [3] it was 35.1 µM; in test [4] it was 26.6 µM; in [5], 35.6 µM; in test [6], more than 100 µM. Further, the TGI was 12.6 µM in test [10], 42.2 µM in test [8] and 50 µM in [9].
